One data set concerns the target T1, dopamine 2 receptor (Rattus norvegicus, UniProt P61169).
T1 construct: membrane fractions prepared from the brain a Wistarstrain male rat; from tissue; host or cells: rat brain striatum (Wistar, male), membrane fraction
In words: [3H]spiperone binding assay (affinity for dopamine 2 receptor). Also noted: species or system Wistar-strain male rat. The following applies: rat striatal membranes, 0.5 nM [3H] spiperone, 37° C., 10 minutes. The procedure:
(§1) Striatal membranes fractions were prepared from a rat brain, and the affinity of the compounds of this invention on dopamine 2 receptors was determined by using [^3 H] spiperone assay from membranes fractions as an index. Moreover, frontal cortex membranes were prepared from a rat brain, and the affinity of the test drugs on serotonine 2 receptor was determined by using [^3 H] ketenserin binding assay. It was shown that the compounds of general formula (1) of the invention have marked anti-dopamine activity and anti-serotonine activity.
[^3 H]spiperone binding assay
The affinity of the compounds of this invention to the dopamine 2 receptor was determined on the basis of the ability to substitute [^3 H] spiperone from stratal membrane fractions prepared from the brain a Wistarstrain male rat.
The rat was decapitated, and the brain was obtained. The striatum was homogenized in 40 volumes of 50 mM Tris-HCl buffer (pH 7.6), and then centrifuged. The pellets were again homogenized in 50 volumes of the same buffer, and used in a binding test. The binding test was conducted by the following procedure.
The stria (original tissue weight 20 mg/ml), 100 microliters of a test drug and 0.5 nM of [^3 H] spiperone were incubated at 37° C. for 10 minutes in 50 mM Tris-HCl buffer (pH 7.6). Then, the reaction mixture was suction-filtered through a glass fiber filter (Watmann GF/B) and washed with a buffer three times.
The filter was put in a scintillation cocktail (ACSII, Amersham Co.), and after mixing, left to stand overnight. The radioactivity held on the filter was measured by a liquid scintillation counter. The nonspecific binding was measured in the presence of 1 μM of (+) butaclamol. The concentration of the test drug which inhibited 50% of a specific binding was determined from the graph and defined as IC50. Ki was calculated from the following equation. [formula]
T1 sequence (P61169 whole entry): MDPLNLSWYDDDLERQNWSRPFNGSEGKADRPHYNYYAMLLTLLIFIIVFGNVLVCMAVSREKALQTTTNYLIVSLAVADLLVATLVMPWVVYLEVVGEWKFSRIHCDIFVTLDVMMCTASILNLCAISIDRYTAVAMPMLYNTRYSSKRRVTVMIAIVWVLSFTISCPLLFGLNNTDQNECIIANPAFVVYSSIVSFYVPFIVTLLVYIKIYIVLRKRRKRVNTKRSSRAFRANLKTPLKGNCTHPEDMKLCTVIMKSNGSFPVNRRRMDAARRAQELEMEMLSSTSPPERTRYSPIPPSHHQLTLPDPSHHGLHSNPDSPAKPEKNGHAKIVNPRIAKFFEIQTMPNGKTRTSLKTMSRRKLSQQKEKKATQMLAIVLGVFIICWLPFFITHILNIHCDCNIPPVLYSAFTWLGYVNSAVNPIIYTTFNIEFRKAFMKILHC
The term Ki denotes the dissociation constant of the complex between target and ligand, obtained from inhibition or displacement. A lower Ki goes with higher affinity. As to `O=C1COc2cc(OCCCN3CCC(Cc4ccccc4)CC3)ccc21` [Compound 1146], the Ki was greater than 400 nM.
On the same count and under the same terms, for `O=C1COc2cc(OCCCN3CCC(O)(c4ccccc4)CC3)ccc21` [Compound 1150] the value was greater than 400 nM.
Still for that read-out and setting: the result for `O=C1COc2cc(OCCCN3CCN(c4ccccc4)CC3)ccc21` [Compound 1256] reads 286 nM; that for `CS(=O)(=O)NC1CCN(CCCOc2ccc3c(c2)OCC3=O)CC1` [Compound 1286], greater than 400 nM.

Another data set has as its system Quipazine-induced head twitching of mice. In words: Quipazine-induced head twitching (anti-5-HT activity). In kind it is in vivo, ddY-strain male mice. The following applies: 1 mg/kg i.p. The source says: The effects of the compounds of general formula (1) on the apomorphine-induced climbing behavior of mice (i.e. anti-dopamine activity) and the effects of the test drugs of the invention on the quipazine-induced head twitching of mice (i.e. anti-serotonine activity) were also examined. It was made clear that the compounds of this invention represented by general formula (1) have marked anti-dopamine activity and anti-serotonine activity both in vivo and in vitro, and have potentiality as an anti-psychotic agent, an anti-depressant, an antianxiety agent, a sedative or as an anti-dementia agent.
By using 5 week old ddY-strain male mice (10 per group), the anti-dopamine (anti-DA hereinafter) and anti-serotonine (anti-5-HT hereinafter) activities were examined by the following procedures. All does of test drugs were adjusted to 1 mg/ml. They were each suspended in 0.5% carboxymethyl cellulose (CMC)/saline so that their volume administered was 0.1 ml/10 g. The suspension was administered intraperitoneally.
2. Effect of quipazine on the head twitch (anti-5-HT activity):
Quipazine (3 mg/kg) was administered intraperitoneally 30 minutes after the intraperitoneal administration of each test drug. After the lapse of 10 minutes, 20 minutes and 30 minutes from then, the number of head twitchings of each mouse which occurred for 2 minutes was counted.
For `O=C1COc2cc(OCCCN3CCN(c4ccccc4)CC3)ccc21` [Compound 1256], the “Percent inhibition of quipazine-induced head twitching” value came to 43%.

Staying with this data set, now noted: 1 mg/kg i.p.; control 6.7 ± 0.8; **p < 0.05, ***p < 0.001.
For `O=C1COc2cc(OCCCN3CCN(c4ccccc4)CC3)ccc21` [Compound 1256], the Quipazine-induced head twitching turned out to be 3.8 ± 0.9 number/2 min.

System in the next data set: not listed separately
In words: in vivo. The following applies: mouse, in vivo, po. The procedure: By using male ddY-strain 5-week old mice (3 to 4 per group), the compounds of general formula (1) were each administered orally or intraperitoneally as a solution in saline or as a suspension in methyl cellulose, and 24 hours after the administration, the toxicity of the compounds was evaluated.
The term LD50 denotes the dose expected to kill half of the subjects tested. Low values mean greater toxicity, high ones lower toxicity. Turning to `O=C1COc2cc(OCCCN3CCC(O)(c4ccccc4)CC3)ccc21` [Compound 1150], the LD50 at 24 h is greater than 300 mg/kg.

The data set is the same for the next values; noted with them: mouse, in vivo, po, LD50 p.o., p.o., 24 hours after administration, male ddY mice.
`O=C1COc2cc(OCCCN3CCC(Cc4ccccc4)CC3)ccc21` [Compound 1146] gave an LD50 at 24 h greater than 300 mg/kg.
On the same count and under the same terms, for `CS(=O)(=O)NC1CCN(CCCOc2ccc3c(c2)OCC3=O)CC1` [Compound 1286] the value was greater than 300 mg/kg.

Another data set deals with Purkinje fiber. In words: Effect on APD (APD75, field-stimulated right ventricular free wall). It counts as cell-based, adult mongrel dog. The following applies: Canis lupus familiaris, purkinje, 20 min, dose 1 μg/ml, 20 minutes incubation, 37° C., 1 Hz; control before drug = 100%; read-out: APD75 % (percent change in APD75). A digest of the protocol:
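Right ventricular free wall from pentobarbital-anaesthetized adult mongrel dog, held in Tyrode's solution at 37° C. with 1 Hz field stimulation. Purkinje fiber action potentials recorded by intracellular glass microelectrodes; APD75 measured after 20 minutes drug perfusion, expressed as percent change versus pre-drug control (100%).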
Regarding `O=C1COc2cc(OCCCN3CCC(Cc4ccccc4)CC3)ccc21` [Compound 1146], the activation at 1 µg/mL was determined as 18%.
For the compound `O=C1COc2cc(OCCCN3CCC(O)(c4ccccc4)CC3)ccc21` [Compound 1150], the activation at 1 µg/mL turned out to be 4%.

Staying with this data set, now noted: Canis lupus familiaris, purkinje, 20 min, dose 3 μg/ml, 20 minutes incubation, 37° C., 1 Hz; control before drug = 100%; read-out: APD75 % (percent change in APD75).
For the compound `O=C1COc2cc(OCCCN3CCC(Cc4ccccc4)CC3)ccc21` [Compound 1146], the activation at 3 µg/mL is 25%.
On the same count and under the same terms, for `O=C1COc2cc(OCCCN3CCC(O)(c4ccccc4)CC3)ccc21` [Compound 1150] the value was 12%; for `CS(=O)(=O)NC1CCN(CCCOc2ccc3c(c2)OCC3=O)CC1` [Compound 1286], 7%.

The same data set, now with this note: Canis lupus familiaris, purkinje, 20 min, dose 10 μg/ml, 20 minutes incubation, 37° C., 1 Hz; control before drug = 100%; read-out: APD75 % (percent change in APD75).
Consider `O=C1COc2cc(OCCCN3CCC(Cc4ccccc4)CC3)ccc21` [Compound 1146], for which the activation at 10 µg/mL came out at 34%.
The same measure, in the same setting: the result for `O=C1COc2cc(OCCCN3CCC(O)(c4ccccc4)CC3)ccc21` [Compound 1150] reads 14%.

The target of the next data set is T2, serotonine 2 receptor (Rattus norvegicus, UniProt P14842).
T2 construct: frontal cortex fraction prepared from the brain of a Wistar male rat; from tissue; host or cells: rat brain frontal cortex (Wistar, male), membrane fraction
T2 sequence (P14842 whole entry): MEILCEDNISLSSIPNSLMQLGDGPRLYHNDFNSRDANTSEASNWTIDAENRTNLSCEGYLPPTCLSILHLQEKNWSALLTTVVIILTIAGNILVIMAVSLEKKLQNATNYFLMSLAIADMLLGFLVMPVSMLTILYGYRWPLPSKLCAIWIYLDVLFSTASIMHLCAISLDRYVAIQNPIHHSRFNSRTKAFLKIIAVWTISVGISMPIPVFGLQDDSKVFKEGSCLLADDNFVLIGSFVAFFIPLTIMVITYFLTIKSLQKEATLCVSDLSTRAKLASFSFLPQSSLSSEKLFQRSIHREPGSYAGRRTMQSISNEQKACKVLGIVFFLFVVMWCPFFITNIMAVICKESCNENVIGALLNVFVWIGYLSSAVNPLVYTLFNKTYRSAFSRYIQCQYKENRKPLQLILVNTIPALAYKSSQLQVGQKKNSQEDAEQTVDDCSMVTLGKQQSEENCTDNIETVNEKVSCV
In words: [3H]ketanserin binding assay (affinity for serotonine 2 receptor). Also noted: species or system Wistar male rat. The following applies: rat frontal cortex, 1 nM [3H] ketanserin, 37° C., 10 minutes. The procedure:
as §1
[^3 H] ketanserin binding assay
The affinity of the compound of the invention was determined on the basis of the ability to substitute [^3 H] ketanserin from a frontal cortex fraction prepared from the brain of a Wistar male rat.
The rat was decapitated, and the brain was obtained. The frontal cortex was homogenized in 40 volumes of 50 mM Tris-HCl buffer (pH 7.6), and then centrifuged. The pellets were again homogenized in 100 volumes of the same buffer, and used in a binding test. The binding test was conducted by the following procedure.
The frontal cortex (original tissue weight 1 mg/ml), 100 microliters of a test drug and 1 nM of [^3 H] ketanserin were incubated at 37° C. for 10 minutes in 50 mM Tris-HCl buffer (pH 7.6). Then, the reaction mixture was suction-filtered through a glass fiber filter (Watmann GF/B) and washed with a buffer three times.
The filter was put in a scintillation cocktail (ACSII, Amersham Co.), and after mixing, left to stand overnight. The radioactivity held on the filter was measured by a liquid scintillation counter. The nonspecific binding was measured in the presence of 1 μM of methysergide. The concentration of the test drug which inhibited 50% of a specific binding was determined from the graph and defined as IC5. Ki was calculated from the following equation. [formula]
Compound `O=C1COc2cc(OCCCN3CCC(Cc4ccccc4)CC3)ccc21` [Compound 1146] had an inhibition constant Ki of 441 nM.
The compound `O=C1COc2cc(OCCCN3CCC(O)(c4ccccc4)CC3)ccc21` [Compound 1150] showed a Ki of 306 nM. The Ki values of the last two compounds are within 1.5-fold of each other.
The compound `O=C1COc2cc(OCCCN3CCN(c4ccccc4)CC3)ccc21` [Compound 1256] yielded an inhibition constant Ki of 175 nM.
Same read-out and setting: for `CS(=O)(=O)NC1CCN(CCCOc2ccc3c(c2)OCC3=O)CC1` [Compound 1286] the value was 475 nM.

The next data set has as its system right ventricle (effective refractory period). In words: Activity on ERP of the right ventricle. It counts as in vivo, adult mongrel dog. The following applies: Canis lupus familiaris, iv; 0.1 mg/kg i.v.; ERP before drug = 100%; read-out: ERP % (ERP prolonging activity). Summed up:
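Anaesthetized open-chest mongrel dogs, right ventricle paced at 400 msec interval (4 msec, twice diastolic threshold) after alcohol ablation of sinus pacemaker. ERP defined by loss of response to first stimulus of a 10-stimulus train; drug given intravenously or intraduodenally, ERP expressed as % of pre-dose.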
`O=C1COc2cc(OCCCN3CCC(Cc4ccccc4)CC3)ccc21` [Compound 1146]: the change in vivo at 0.1 mg/kg came out at 4%.
The same measure, in the same setting: the result for `CS(=O)(=O)NC1CCN(CCCOc2ccc3c(c2)OCC3=O)CC1` [Compound 1286] reads 8.3%.

Staying with this data set, now noted: Canis lupus familiaris, iv; 0.3 mg/kg i.v.; ERP before drug = 100%; read-out: ERP % (ERP prolonging activity).
Turning to `O=C1COc2cc(OCCCN3CCC(Cc4ccccc4)CC3)ccc21` [Compound 1146], the change in vivo at 0.3 mg/kg worked out at 16%.
As for `CS(=O)(=O)NC1CCN(CCCOc2ccc3c(c2)OCC3=O)CC1` [Compound 1286], the change in vivo at 0.3 mg/kg amounted to 8.3%.

Staying with this data set, now noted: Canis lupus familiaris, iv; 1 mg/kg i.v.; ERP before drug = 100%; read-out: ERP % (ERP prolonging activity).
Turning to `O=C1COc2cc(OCCCN3CCC(Cc4ccccc4)CC3)ccc21` [Compound 1146], the change in vivo at 1 mg/kg was 20%.
Same read-out and setting: for `CS(=O)(=O)NC1CCN(CCCOc2ccc3c(c2)OCC3=O)CC1` [Compound 1286] the value was 16.6%.

The same data set, now with this note: Canis lupus familiaris, iv; 3 mg/kg i.v.; ERP before drug = 100%; read-out: ERP % (ERP prolonging activity).
For `CS(=O)(=O)NC1CCN(CCCOc2ccc3c(c2)OCC3=O)CC1` [Compound 1286], the change in vivo at 3 mg/kg was 16.6%.

The subject of a further data set is atrial fibrillation. In words: Atrial fibrillation model. It counts as in vivo, mongrel dog. The following applies: dose of 0.3 to 3 mg/kg or 1 to 10 mg/kg. An excerpt: Furthermore, the anaethetized dog was cut open at the chest. Bipolar electrodes were sutured to the right atrial surface, and stimulation electrodes were attached to the vagus nerves at both sides of the cervical region. Atrial fibrillation was induced by the method of Goldberger et al. A. L. Goldberger et al.: […] Further, the anaethetized dog was cut open at the chest. Left anterior descending coronary artery was ligated, and ninety minutes later, reperfused to prepare a myocardial infarction which was liable to develop tachycardia. At that time, a bipolar plunge electrode was placed in the interventricular septum near the ligated site. Several days after the operation, programmed electrical stimulation was applied to induce tachycardia. The effect of the drug to cause disappear of tachycardia was examined. In an anaethetized and open-chested mongrel dog, bipolar electrodes (silver and silver-silver chloride electrodes) were sutured respectively to the right atrium for stimulation and recording. The vagus nerves on both sides of the cervical region were isolated and cut, and stimulation electrodes were attached to the peripheral end. The atrial fibrillation was induced in accordance with the method of Goldberger et al. After cardiac arrest induced by stimulating the vagus nerves, electrical stimulation was applied to the right atria at a high frequency.
Regarding `O=C1COc2cc(OCCCN3CCC(Cc4ccccc4)CC3)ccc21` [Compound 1146], the “disappearance of atrial fibrillation” value is “could cause disappearance fibrillation”.
